Reference: ChEMBL document CHEMBL4145509, “Unravelling the binding mechanism of benproperine with human serum albumin: A docking, fluorometric, and thermodynamic approach” (Eur J Med Chem, 2018)

Assays:
Albumin [1] = target: T1, Albumin (Homo sapiens, UniProt P02768); experiment: Binding affinity to human serum albumin assessed as fluorescence lifetime decay 3 at HSA:compound ratio of 1:2 after 1 hr by fluorescence spectroscopic analysis (reference value: 6.876 +/- 0.177 nanoseconds); assay type: ADME; settings: isolated protein
T1 sequence (P02768 whole entry): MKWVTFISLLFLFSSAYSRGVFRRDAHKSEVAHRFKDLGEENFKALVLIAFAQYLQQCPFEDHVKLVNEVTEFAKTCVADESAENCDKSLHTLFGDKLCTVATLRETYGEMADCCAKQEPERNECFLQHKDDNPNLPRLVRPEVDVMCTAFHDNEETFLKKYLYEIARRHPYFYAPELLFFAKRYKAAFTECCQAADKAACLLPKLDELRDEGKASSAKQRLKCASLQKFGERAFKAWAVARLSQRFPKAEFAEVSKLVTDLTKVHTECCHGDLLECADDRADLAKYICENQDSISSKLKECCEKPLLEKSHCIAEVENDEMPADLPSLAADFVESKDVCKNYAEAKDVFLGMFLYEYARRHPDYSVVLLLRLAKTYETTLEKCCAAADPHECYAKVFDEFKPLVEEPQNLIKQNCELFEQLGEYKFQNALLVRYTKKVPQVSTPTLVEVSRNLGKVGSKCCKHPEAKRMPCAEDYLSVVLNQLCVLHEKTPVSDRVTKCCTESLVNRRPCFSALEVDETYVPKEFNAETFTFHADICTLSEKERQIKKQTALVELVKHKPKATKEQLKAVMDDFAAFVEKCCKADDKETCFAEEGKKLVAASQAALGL

Albumin [2] = target: T1, Albumin; experiment: Binding affinity to human serum albumin assessed as Stern-Volmer quenching constant after 1 hr at 37 degC by fluorescence spectroscopic analysis; assay type: ADME; settings: isolated protein
Albumin [3] = target: T1, Albumin; experiment: Binding affinity to human serum albumin assessed as fluorescence lifetime decay 2 at HSA:compound ratio of 1:10 after 1 hr by fluorescence spectroscopic analysis (reference value: 0.584 +/- 0.047 nanoseconds); assay type: ADME; settings: isolated protein
Albumin [4] = target: T1, Albumin; experiment: Induction of conformational changes in human serum albumin assessed as reduction in alpha-helical content at HSA:compound ratio of 1:10 by CD spectral analysis (reference value: 52.6%); set-up: scale not given: the % may be the effect or the level left
Albumin [5] = target: T1, Albumin; experiment: Binding affinity to human serum albumin by isothermal titration microcalorimetry; assay type: ADME; settings: isolated protein
Albumin [6] = target: T1, Albumin; experiment: Binding affinity to human serum albumin assessed as fluorescence lifetime decay 1 at HSA:compound ratio of 1:2 after 1 hr by fluorescence spectroscopic analysis (reference value: 3.917 +/- 0.039 nanoseconds); assay type: ADME; settings: isolated protein
Albumin [7] = target: T1, Albumin; experiment: Binding affinity to human serum albumin assessed as fluorescence lifetime decay 3 at HSA:compound ratio of 1:10 after 1 hr by fluorescence spectroscopic analysis (reference value: 6.876 +/- 0.177 nanoseconds); assay type: ADME; settings: isolated protein
Albumin [8] = target: T1, Albumin; experiment: Binding affinity to human serum albumin assessed as binding constant after 1 hr at 37 degC by fluorescence spectroscopic analysis; assay type: ADME; settings: isolated protein
Albumin [9] = target: T1, Albumin; experiment: Induction of conformational changes in human serum albumin assessed as reduction in alpha-helical content at HSA:compound ratio of 1:2 by CD spectral analysis (reference value: 52.6%); set-up: scale not given: the % may be the effect or the level left
Albumin [10] = target: T1, Albumin; experiment: Binding affinity to human serum albumin assessed as fluorescence lifetime decay 2 at HSA:compound ratio of 1:2 after 1 hr by fluorescence spectroscopic analysis (reference value: 0.584 +/- 0.047 nanoseconds); assay type: ADME; settings: isolated protein
Albumin [11] = target: T1, Albumin; experiment: Binding affinity to human serum albumin assessed as fluorescence lifetime decay 1 at HSA:compound ratio of 1:10 after 1 hr by fluorescence spectroscopic analysis (reference value: 3.917 +/- 0.039 nanoseconds); assay type: ADME; settings: isolated protein
Albumin [12] = target: T1, Albumin; experiment: Binding affinity to human serum albumin assessed as Stern-Volmer quenching constant after 1 hr at 25 degC by fluorescence spectroscopic analysis; assay type: ADME; settings: isolated protein
Albumin [13] = target: T1, Albumin; experiment: Binding affinity to human serum albumin assessed as binding constant after 1 hr at 25 degC by fluorescence spectroscopic analysis; assay type: ADME; settings: isolated protein

Time (Albumin [1]): 6.858 nanoseconds
KSV (Albumin [2]): 1.99 ×10⁴ L/mol
Time (Albumin [3]): 0.488 nanoseconds
Activity (Albumin [4]): 47.88%
K (Albumin [5]): 1.97 ×10⁴ L/mol
Time (Albumin [6]): 3.852 nanoseconds
Time (Albumin [7]): 6.84 nanoseconds
K (Albumin [8]): 1.1 ×10⁴ L/mol
Activity (Albumin [9]): 49.06%
Time (Albumin [10]): 0.515 nanoseconds
Time (Albumin [11]): 3.699 nanoseconds
KSV (Albumin [12]): 2.74 ×10⁴ L/mol
K (Albumin [13]): 2.01 ×10⁴ L/mol
Structure (SMILES): CC(COc1ccccc1Cc1ccccc1)N1CCCCC1 (stereo not drawn) [BENPROPERINE]
